Reference: ChEMBL document CHEMBL4354785, “Recent insights into natural product inhibitors of matrix metalloproteinases” (Medchemcomm, 2019)

Key:
[1] = biological target: T1, Matrix metalloproteinase-9 (Homo sapiens, UniProt P14780); assay: Inhibition of human MMP9 catalytic domain using Mca-PLGL-Dpa-AR-NH2 as substrate by fluorescence method
[2] = biological target: 72 kDa type IV collagenase (Homo sapiens, UniProt P08253); assay: Inhibition of recombinant human MMP2 using fluorescently conjugated gelatin as substrate
[3] = biological target: T1, Matrix metalloproteinase-9; assay: Inhibition of human MMP9 (107 to 707 residues) expressed in Escherichia coli BL21(DE3) cells

T1 sequence (P14780 whole entry, the tested form may be a part): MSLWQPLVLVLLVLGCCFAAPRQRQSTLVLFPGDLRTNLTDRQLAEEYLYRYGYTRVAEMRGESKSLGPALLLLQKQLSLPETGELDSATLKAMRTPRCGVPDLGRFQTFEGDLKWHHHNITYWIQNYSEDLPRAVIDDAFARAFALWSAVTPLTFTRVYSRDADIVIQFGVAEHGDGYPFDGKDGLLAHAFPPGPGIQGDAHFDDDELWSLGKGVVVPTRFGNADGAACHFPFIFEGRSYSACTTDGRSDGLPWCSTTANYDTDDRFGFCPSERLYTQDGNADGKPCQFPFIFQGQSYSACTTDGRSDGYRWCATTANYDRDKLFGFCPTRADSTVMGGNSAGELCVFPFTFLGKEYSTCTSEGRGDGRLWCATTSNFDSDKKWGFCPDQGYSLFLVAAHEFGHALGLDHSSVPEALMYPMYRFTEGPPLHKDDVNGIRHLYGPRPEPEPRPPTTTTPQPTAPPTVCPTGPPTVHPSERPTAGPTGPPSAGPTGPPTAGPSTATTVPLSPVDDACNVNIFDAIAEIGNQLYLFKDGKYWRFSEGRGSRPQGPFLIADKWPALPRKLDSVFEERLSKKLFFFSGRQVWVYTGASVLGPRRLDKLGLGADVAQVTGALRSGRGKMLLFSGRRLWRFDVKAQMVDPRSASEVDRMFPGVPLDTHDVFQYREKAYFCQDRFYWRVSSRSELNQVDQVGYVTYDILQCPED
Chain of 72 kDa type IV collagenase (P08253 whole entry, the tested form may be a part): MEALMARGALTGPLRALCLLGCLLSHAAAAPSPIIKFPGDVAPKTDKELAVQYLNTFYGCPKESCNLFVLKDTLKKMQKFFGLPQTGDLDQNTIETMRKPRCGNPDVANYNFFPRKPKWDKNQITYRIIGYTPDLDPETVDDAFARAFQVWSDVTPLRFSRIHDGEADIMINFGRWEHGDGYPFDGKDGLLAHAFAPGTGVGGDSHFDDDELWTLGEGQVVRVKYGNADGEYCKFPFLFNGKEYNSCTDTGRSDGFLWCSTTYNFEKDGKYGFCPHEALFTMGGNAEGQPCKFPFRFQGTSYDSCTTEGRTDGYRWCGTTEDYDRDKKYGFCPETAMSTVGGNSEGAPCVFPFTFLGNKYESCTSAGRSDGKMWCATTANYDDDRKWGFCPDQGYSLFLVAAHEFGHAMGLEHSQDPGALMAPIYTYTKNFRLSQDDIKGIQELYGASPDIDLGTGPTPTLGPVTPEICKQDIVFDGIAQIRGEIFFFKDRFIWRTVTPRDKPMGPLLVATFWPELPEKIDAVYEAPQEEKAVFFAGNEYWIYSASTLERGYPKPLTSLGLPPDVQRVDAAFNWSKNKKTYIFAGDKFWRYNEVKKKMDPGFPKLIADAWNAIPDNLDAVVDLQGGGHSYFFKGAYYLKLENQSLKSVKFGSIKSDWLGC

Row | SMILES | IC50 [2] | further results
1 | COc1ccc(/C=C/C(=O)O[C@H](C(=O)O)[C@](O)(Cc2ccc(O)c(O)c2)C(=O)O)cc1O [CIMICIFUGIC ACID B] | – | IC50 [1]: 13.4 µM
2 | CCCCCC/C=C\CCCCCCCc1cccc(O)c1C(=O)O [GINGKOLIC ACID] | 6.3 µM | –
3 | O=C(/C=C/c1ccc(O)c(O)c1)Oc1ccc2c(c1)C(=O)OCC2 | – | IC50 [3]: 1.39 µM
4 | CCCCC/C=C/CCCCCCCc1cccc(O)c1C(=O)O | 6.5 µM | –
